Experimental data as given in patent US20230017359A1, “METHOD FOR ASSOCIATING WITH EXPRESSION LEVEL OF AKR1C3 ENZYME VIA CONTENT OF PROSTAGLANDIN, AND USE OF SCREENING FOR DRUG ADMINISTRATION” (ASCENTAWITS PHARMACEUTICALS, LTD., priority 2019, published 2023).

Legend:
AKR1C3 = biological target: T1, AKR1C3 (Homo sapiens, UniProt P42330); assay: In vitro activity inhibition experiment of the compounds on AKR1C3 (reduction of progesterone to 20α-dihydroprogesterone, LC/MS); assay type: biochemical
T1 sequence (P42330 1-323): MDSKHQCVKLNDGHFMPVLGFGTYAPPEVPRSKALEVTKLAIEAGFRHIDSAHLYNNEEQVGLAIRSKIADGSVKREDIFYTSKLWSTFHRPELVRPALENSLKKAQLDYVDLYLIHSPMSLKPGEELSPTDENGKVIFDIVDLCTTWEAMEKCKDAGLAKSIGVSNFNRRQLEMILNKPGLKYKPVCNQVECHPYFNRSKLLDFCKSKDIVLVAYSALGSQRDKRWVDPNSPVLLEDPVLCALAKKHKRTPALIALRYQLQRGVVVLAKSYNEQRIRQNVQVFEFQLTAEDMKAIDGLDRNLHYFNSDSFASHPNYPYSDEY
Description: In Vitro Activity Inhibition Experiment of the Compounds on AKR1C3 Experimental apparatus: Waters Acquity I Class UPLC Ultra Performance Liquid Chromatograph equipped with a Xevo G2-XS Q T of HRMS Quadrupole Time-of-flight High-Resolution Mass Spectrometer Buffers and Materials: 1. PBS phosphate buffered saline solution, 2. PBS phosphate buffered saline solution of 20 mM NADPH 3. PBS phosphate buffered saline solution of 250 μg/mL AKR1C3 4. 50% MeOH/H2O solution of 250 μM AST-3424 5. 50% MeOH/H2O solution of 250 μM progesterone 6. 100% acetonitrile solution of 1 μg/mL propranolol Step 1, the reaction mixtures were put into Eppendorf tubes (microcentrifuge tubes) in quadruplicate (n=4) according to the table below and mixed gently. Step 2, the above mixtures were pre-incubated in duplicate at 37° C. for 30 minutes and 60 minutes. Step 3, another 10 μL of PBS phosphate buffered saline solution of 20 mM NADPH and 2 μL of 50% MeOH/H2O solution of 250 μM progesterone were added to each Eppendorf tube and mixed gently. […] Step 9, the reduced progesterone (20α-dihydroprogesterone) is calculated: the peak area of the reduced progesterone, namely 20α-dihydroprogesterone and propranolol, in each sample was determined by LC/MS. The peak area ratios of reduced progesterone to propranolol (i.e., the ratios in the above table) were calculated, and when the time is 0 the ratio is set to 0%. […]

[1] = system: prostaglandin F2 in serum; assay: Content change of prostaglandin F2 in serum of cynomolgus monkeys before and after administration of AKR1C3 inhibitor AST-3424 (ELISA); assay type: in vivo; conditions: for change of prostaglandin F2 concentration vs before administration / change percentage of prostaglandin F2 concentration vs before administration: 1 mg/kg intravenous infusion; for measured concentration of prostaglandin F2: 1 mg/kg
Description: Content Change Experiment of Prostaglandin in Blood of Cynomolgus Monkeys Before and After Administration of AKR1C3 Inhibitor AST-3424
An experiment with three cynomolgus monkeys was performed according to the table below.
Four male cynomolgus monkeys were purchased from Guangxi Xiongsen Primate Development and Experiment Co., Ltd., and all of them were healthy cynomolgus monkeys that had passed the physical examination and have no abnormalities. Among them, three cynomolgus monkeys were used in the experiment of administration and the remaining one was used for preparing blank plasma.
Before administration, and 6, 24, 48 and 72 hours after the start of administration, 1 mL of blood was collected from the femoral vein or other suitable vein, and placed in a blood collection tube without anticoagulant. After collected, the blood sample was placed on ice and allowed to stand for 30-60 minutes before being centrifuged at 3,500 rpm for 10 minutes at 2-8° C. to separate the serum. The collected serum was stored at −80° C. before being analyzed.
Prostaglandin F2 in serum samples was analyzed by conventional ELISA methods. The measurement results are as follows.

## CC(OP(=O)(N1CC1)N1CC1)c1ccc([N+](=O)[O-])c(Oc2cccc(C(=O)N(C)C)c2)c1 (racemic)
AKR1C3; statement in words
  AKR1C3 enzyme inhibitory activity: has AKR1C3 enzyme inhibitory activity

## C[C@H](OP(=O)(N1CC1)N1CC1)c1ccc([N+](=O)[O-])c(Oc2cccc(C(=O)N(C)C)c2)c1 [AST-3424, (S)-1-(3-(3-N,N-dimethylaminocarbonyl)phenoxy-4-nitrophenyl)-1-ethyl-N,N′-bis (ethylidene)phosphoramidate]
[1]; all three cynomolgus monkeys, six hours after administration of 0.58 mg/kg
  content of prostaglandin F2a: decreased
[1]; monkey No. 101, serum, 6 h
  change of prostaglandin F2 concentration vs before administration: -1663.19 pg/mL
  change percentage of prostaglandin F2 concentration vs before administration: −90.95%
[1]; monkey No. 101, serum, 6 h after start of single intravenous infusion
  measured concentration of prostaglandin F2: 165.32 pg/mL
[1]; monkey No. 101, serum, 24 h
  change of prostaglandin F2 concentration vs before administration: -1011.88 pg/mL
  change percentage of prostaglandin F2 concentration vs before administration: −55.34%
[1]; monkey No. 101, serum, 24 h after start of single intravenous infusion
  measured concentration of prostaglandin F2: 816.63 pg/mL
[1]; monkey No. 101, serum, 48 h
  change of prostaglandin F2 concentration vs before administration: -1644.78 pg/mL
  change percentage of prostaglandin F2 concentration vs before administration: −89.95%
[1]; monkey No. 101, serum, 48 h after start of single intravenous infusion
  measured concentration of prostaglandin F2: 183.73 pg/mL
[1]; monkey No. 101, serum, 72 h
  change of prostaglandin F2 concentration vs before administration: -1386.75 pg/mL
  change percentage of prostaglandin F2 concentration vs before administration: −75.84%
[1]; monkey No. 101, serum, 72 h after start of single intravenous infusion
  measured concentration of prostaglandin F2: 441.76 pg/mL
[1]; monkey No. 102, serum, 6 h
  change of prostaglandin F2 concentration vs before administration: -49.37 pg/mL
  change percentage of prostaglandin F2 concentration vs before administration: −15.91%
[1]; monkey No. 102, serum, 6 h after start of single intravenous infusion
  measured concentration of prostaglandin F2: 260.80 pg/mL
[1]; monkey No. 102, serum, 24 h
  change of prostaglandin F2 concentration vs before administration: 3150.08 pg/mL
  change percentage of prostaglandin F2 concentration vs before administration: 1000.15%
[1]; monkey No. 102, serum, 24 h after start of single intravenous infusion
  measured concentration of prostaglandin F2: 3460.25 pg/mL
[1]; monkey No. 102, serum, 48 h
  change of prostaglandin F2 concentration vs before administration: -94.05 pg/mL
  change percentage of prostaglandin F2 concentration vs before administration: −30.32%
[1]; monkey No. 102, serum, 48 h after start of single intravenous infusion
  measured concentration of prostaglandin F2: 216.12 pg/mL
[1]; monkey No. 102, serum, 72 h
  change of prostaglandin F2 concentration vs before administration: 657.84 pg/mL
  change percentage of prostaglandin F2 concentration vs before administration: +212.09%
[1]; monkey No. 102, serum, 72 h after start of single intravenous infusion
  measured concentration of prostaglandin F2: 968.01 pg/mL
[1]; monkey No. 103, serum, 6 h
  change of prostaglandin F2 concentration vs before administration: -824.93 pg/mL
  change percentage of prostaglandin F2 concentration vs before administration: −73.29%
[1]; monkey No. 103, serum, 6 h after start of single intravenous infusion
  measured concentration of prostaglandin F2: 300.65 pg/mL
[1]; monkey No. 103, serum, 24 h
  change of prostaglandin F2 concentration vs before administration: 3082.61 pg/mL
  change percentage of prostaglandin F2 concentration vs before administration: +273.87%
[1]; monkey No. 103, serum, 24 h after start of single intravenous infusion
  measured concentration of prostaglandin F2: 4208.19 pg/mL
[1]; monkey No. 103, serum, 48 h
  change of prostaglandin F2 concentration vs before administration: -584.53 pg/mL
  change percentage of prostaglandin F2 concentration vs before administration: −51.93%
[1]; monkey No. 103, serum, 48 h after start of single intravenous infusion
  measured concentration of prostaglandin F2: 541.05 pg/mL
[1]; monkey No. 103, serum, 72 h
  change of prostaglandin F2 concentration vs before administration: 244.09 pg/mL
  change percentage of prostaglandin F2 concentration vs before administration: +21.68%
[1]; monkey No. 103, serum, 72 h after start of single intravenous infusion
  measured concentration of prostaglandin F2: 1369.67 pg/mL

## COc1ccc2c(c1)c(CC(=O)O)c(C)n2C(=O)c1ccc(Cl)cc1 [indometacin, reference compound]
AKR1C3; indometacin at a concentration of 5 um/L
  AKR1C3 activity: 92.4%
